Data from patent publication US20220306647A1, “NOVEL INDOLE-2-CARBOXAMIDES ACTIVE AGAINST THE HEPATITUS B VIRUS (HBV)” (AICURIS GMBH & CO. KG, priority 2019, published 2022).
Where two headings read alike, the source gives them in different places.

What was measured:
[1] = biological target: T1, HBV core protein (C-terminal truncated core protein, 149 amino acids of the N-terminal assembly domain, BODIPY-FL labelled) (UniProt P03146); experiment: Biochemical capsid assembly assay (fluorescence quenching)
T1 construct: fused on or other part: A single cysteine added after residue 149, at position 150; It carries the BODIPY-FL maleimide label
T1 sequence (P03146 whole entry, the tested form may be a part): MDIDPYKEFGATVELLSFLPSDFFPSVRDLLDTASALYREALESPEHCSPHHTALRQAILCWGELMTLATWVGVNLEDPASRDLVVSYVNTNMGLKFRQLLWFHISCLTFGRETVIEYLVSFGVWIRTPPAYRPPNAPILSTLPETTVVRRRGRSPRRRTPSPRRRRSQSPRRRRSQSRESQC
Summary of the method: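 Fluorescence quenching of BODIPY-FL-labelled core dimers (1.0 to 2.0 μM) in 50 mM HEPES pH 7.5; compounds at 8 concentrations, 0.5 log-unit dilutions from top 100, 31.6 or 10 μM, 0.5% DMSO. Assembly started with NaCl to […]; fluorescence (ex 477/em 525 nm) read after 6 min. EC50 by non-linear regression.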

[2] = test system: HBV (HepAD38 cells); experiment: HBV replication assay: determination of HBV DNA from the supernatants of HepAD38 cells; assay type: cell-based; conditions: Hepatitis B virus, 144 h, HBV DNA in HepAD38 supernatant at day 6, qPCR, read-out: Cell activity
Method: Determination of HBV DNA from the Supernatants of HepAD38 Cells
The anti-HBV activity was analysed in the stable transfected cell line HepAD38, which has been described to secrete high levels of HBV virion particles (Ladner et al., 1997). In brief, HepAD38 cells were cultured at 37° C. at 5% CO2 and 95% humidity in 200 μl maintenance medium, which was Dulbecco's modified Eagle's medium/Nutrient Mixture F-12 (Gibco, Karlsruhe), 10% fetal bovine serum (PAN Biotech Aidenbach) supplemented with 50 μg/ml penicillin/streptomycin (Gibco, Karlsruhe), 2 mM L-glutamine (PAN Biotech, Aidenbach), 400 μg/ml G418 (AppliChem, Darmstadt) and 0.3 μg/ml tetracycline. Cells were subcultured once a week in a 1:5 ratio, but were usually not passaged more than ten times. For the assay 60,000 cells were seeded in maintenance medium without any tetracycline into each well of a 96-well plate and treated with serial half-log dilutions of test compound. To minimize edge effects the outer 36 wells of the plate were not used but were filled with assay medium. On each assay plate six wells for the virus control (untreated HepAD38 cells) and six wells for the cell control (HepAD38 cells treated with 0.3 μg/ml tetracycline) were allocated, respectively. In addition, one plate set with reference inhibitors like BAY 41-4109, entecavir, and lamivudine instead of screening compounds were prepared in each experiment. In general, experiments were performed thrice in triplicates. At day 6 HBV DNA from 100 μl filtrated cell culture supernatant (AcroPrep Advance 96 Filter Plate, […] Supor membran, PALL GmbH, Dreieich) was automatically purified on the MagNa Pure LC instrument using the MagNA Pure 96 DNA and Viral NA Small Volume Kit (Roche Diagnostics, Mannheim) according to the instructions of the manufacturer. EC50 values were calculated from relative copy numbers of HBV DNA In brief, 5 μl of the 100 μl eluate containing HBV DNA were subjected to PCR LC480 Probes Master Kit (Roche) together with 1 μM antisense primer […], 0.5 μM sense primer […], 0.3 μM hybprobes […]-FL and LC640-[…]-PH (TIBMolBiol, Berlin) to a final volume of 12.5 μl. The PCR was performed on the Light Cycler 480 real time system (Roche Diagnostics, Mannheim) using the following protocol: Pre-incubation for 1 min at 95° C., amplification: 40 cycles×(10 sec at 95° C., 50 sec at 60° C., 1 sec at 70° C.), cooling for 10 sec at 40° C. Viral load was quantitated against known standards using HBV plasmid DNA of pCH-9/3091 (Nassal et al., 1990, Cell 63: 1357-1363) and the LightCycler 480 SW 1.5 software (Roche Diagnostics, Mannheim) and EC50 values were calculated using non-linear regression with GraphPad Prism 6 (GraphPad Software Inc., La Jolla, USA).

[3] = assembly started with NaCl, fluorescence read after 6 min, read-out: Assembly activity
[4] = read-out: Assembly activity, assembly started with NaCl, fluorescence read after 6 min

| SMILES | IC50 [1, 3] [µM] | EC50 [2] [µM] | IC50 [1, 4] [µM] |
| --- | --- | --- | --- |
| CN(Cc1ccccn1)C(=O)c1noc2c1CN(C(=O)c1cc3ccccc3[nH]1)CC2 [Example 26, 5-(1H-indole-2-carbonyl)-N-methyl-N-[(pyridin-2-yl)methyl]-4H,5H,6H,7H-[1,2]oxazolo[4,5-c]pyridine-3-carboxamide] | < 5 | 1 to 10 | – |
| CN(C(=O)c1cnn2c1CN(C(=O)c1cc3ccccc3[nH]1)CC2)C1(c2ccccc2C(=O)O)CC1 [Example 30, 2-{1-[N-methyl-5-(1H-indole-2-carbonyl)-4H,5H,6H,7H-pyrazolo[1,5-a]pyrazine-3-amido]cyclopropyl}benzoic acid] | < 5 | 1 to 10 | – |
| CN(C(=O)c1cnn2c1CN(C(=O)c1cc3ccccc3[nH]1)CC2)C1(c2ccc(C(=O)O)cn2)CC1 [Example 31, 6-{1-[N-methyl-5-(1H-indole-2-carbonyl)-4H,5H,6H,7H-pyrazolo[1,5-a]pyrazine-3-amido]cyclopropyl}pyridine-3-carboxylic acid] | < 5 | < 100 | – |
| CN(C(=O)c1cnn2c1CN(C(=O)c1cc3cc(F)c(Cl)cc3[nH]1)CC2)C1(c2cccc(C(=O)O)c2)CC1 [Example 33, 3-{1-[N-methyl-5-(6-chloro-5-fluoro-1H-indole-2-carbonyl)-4H,5H,6H,7H-pyrazolo[1,5-a]pyrazine-3-amido]cyclopropyl}benzoic acid] | < 5 | < 1 | – |
| CN(C(=O)c1cnn2c1CN(C(=O)c1cc3ccccc3[nH]1)CC2)C1(Cc2ccc(C(=O)O)cc2)CC1 [Example 34, 4-({1-[N-methyl-5-(1H-indole-2-carbonyl)-4H,5H,6H,7H-pyrazolo[1,5-a]pyrazine-3-amido]cyclopropyl}methyl)benzoic acid] | < 5 | 1 to 10 | – |
| Cc1c(F)ccc2[nH]c(C(=O)N3CCn4ncc(C(=O)N(C)C5(c6cccc(C(=O)O)c6)CC5)c4C3)cc12 [Example 35, 3-{1-[N-methyl-5-(5-fluoro-4-methyl-1H-indole-2-carbonyl)-4H,5H,6H,7H-pyrazolo[1,5-a]pyrazine-3-amido]cyclopropyl}benzoic acid] | – | < 1 | < 5 |
| CN1C(=O)c2c3c(nn2CC12CC2)CCN(C(=O)c1cc2c(F)cccc2[nH]1)C3 [Example 37, 12′-(4-fluoro-1H-indole-2-carbonyl)-4′-methyl-4′,7′,8′,12′-tetraazaspiro[cyclopropane-1,5′-tricyclo[7.4.0.0^2, □]tridecane]-1′,8′-dien-3′-one] | – | < 1 | < 5 |
| COCC1(N(C)C(=O)c2onc3c2CN(C(=O)c2cc4ccccc4[nH]2)CC3)CC1 [Example 38, 5-(1H-indole-2-carbonyl)-N-[1-(methoxymethyl)cyclopropyl]-N-methyl-4H,5H,6H,7H-[1,2]oxazolo[4,3-c]pyridine-3-carboxamide] | < 5 | < 1 | – |
| CN(C(=O)c1onc2c1CN(C(=O)c1cc3ccccc3[nH]1)CC2)C1CC1 [Example 39, N-cyclopropyl-5-(1H-indole-2-carbonyl)-N-methyl-4,5,6,7-tetrahydroisoxazolo[4,3-c]pyridine-3-carboxamide] | – | < 1 | < 5 |
| C[C@@H](NC(=O)c1onc2c1CN(C(=O)c1cc3ccccc3[nH]1)CC2)C(F)(F)F [Example 40, 5-(1H-indole-2-carbonyl)-N-[(2R)-1,1,1-trifluoropropan-2-yl]-4H,5H,6H,7H-[1,2]oxazolo[4,3-c]pyridine-3-carboxamide] | < 5 | < 1 | – |
| CC1Cn2cnc(C(=O)N(C)C3(c4cccc(C(=O)O)c4)CC3)c2CN1C(=O)c1cc2ccccc2[nH]1 (stereo not drawn) [Example 41, 3-{1-[N-methyl-7-(1H-indole-2-carbonyl)-6-methyl-5H,6H,7H,8H-imidazo[1,5-a]pyrazine-1-amido]cyclopropyl}benzoic acid] | – | 1 to 10 | < 5 |
| CN(C(=O)c1cnn2c1CN(C(=O)c1cc3c(F)c(F)ccc3[nH]1)CC2)C1(c2cccc(C(=O)O)c2)CC1 [Example 42, 3-{1-[N-methyl-5-(4,5-difluoro-1H-indole-2-carbonyl)-4H,5H,6H,7H-pyrazolo[1,5-a]pyrazine-3-amido]cyclopropyl}benzoic acid] | < 5 | 1 to 10 | – |
| O=C1NC2(CC2)Cn2nc3c(c21)CN(C(=O)c1cc2ccccc2[nH]1)CC3 [Example 43, 12′-(1H-indole-2-carbonyl)-4′,7′,8′,12′-tetraazaspiro[cyclopropane-1,5′-tricyclo[7.4.0.0^2, D]tridecane]-1′,8′-dien-3′-one] | – | 1 to 10 | < 5 |
| CN(C(=O)c1cnn2c1CN(C(=O)c1cc3c(Cl)cccc3[nH]1)CC2)C1(c2ncc(C(=O)O)cn2)CC1 [Example 45, 2-{1-[N-methyl-5-(4-chloro-1H-indole-2-carbonyl)-4H,5H,6H,7H-pyrazolo[1,5-a]pyrazine-3-amido]cyclopropyl}pyrimidine-5-carboxylic acid] | < 5 | 1 to 10 | – |
| C[C@@H](NC(=O)c1noc2c1CN(C(=O)c1cc3ccccc3[nH]1)CC2)C(F)(F)F [Example 46, 5-(1H-indole-2-carbonyl)-N-[(2R)-1,1,1-trifluoropropan-2-yl]-4H,5H,6H,7H-[1,2]oxazolo[4,5-c]pyridine-3-carboxamide] | – | < 1 | < 5 |
| CN(C(=O)c1cnn2c1CN(C(=O)c1cc3ccccc3[nH]1)CC2)C1(COc2ccc(C(=O)O)cc2)CC1 [Example 47, 4-({1-[N-methyl-5-(1H-indole-2-carbonyl)-4H,5H,6H,7H-pyrazolo[1,5-a]pyrazine-3-amido]cyclopropyl}methoxy)benzoic acid] | < 5 | < 1 | – |
| CN(C(=O)c1[nH]nc2c1CN(C(=O)c1cc3c(Cl)cccc3[nH]1)CC2)C1(c2ccc(C(=O)O)cc2)CC1 [Example 49, 4-{1-[N-methyl-5-(4-chloro-1H-indole-2-carbonyl)-2H,4H,5H,6H,7H-pyrazolo[4,3-c]pyridine-3-amido]cyclopropyl}benzoic acid] | < 5 | 1 to 10 | – |
| CN(C(=O)c1cnn2c1CN(C(=O)c1cc3cc(F)c(Cl)cc3[nH]1)CC2)C1(c2ccc(C(=O)O)cc2)CC1 [Example 50, 4-{1-[N-methyl-5-(6-chloro-5-fluoro-1H-indole-2-carbonyl)-4H,5H,6H,7H-pyrazolo[1,5-a]pyrazine-3-amido]cyclopropyl}benzoic acid] | < 5 | < 1 | – |
| CN(C(=O)c1cnn2c1CN(C(=O)c1cc3c(Cl)cccc3[nH]1)CC2)C1(c2ccc(C(=O)O)cc2)CC1 [Example 51, 4-{1-[N-methyl-5-(4-chloro-1H-indole-2-carbonyl)-4H,5H,6H,7H-pyrazolo[1,5-a]pyrazine-3-amido]cyclopropyl}benzoic acid] | < 5 | < 1 | – |
| CN(C(=O)c1cnn2c1CN(C(=O)c1cc3c(F)c(F)ccc3[nH]1)CC2)C1(c2ccc(C(=O)O)cc2)CC1 [Example 52, 4-{1-[N-methyl-5-(4,5-difluoro-1H-indole-2-carbonyl)-4H,5H,6H,7H-pyrazolo[1,5-a]pyrazine-3-amido]cyclopropyl}benzoic acid] | < 5 | < 1 | – |
| Cc1c(F)ccc2[nH]c(C(=O)N3CCn4ncc(C(=O)N(C)C5(c6ccc(C(=O)O)cc6)CC5)c4C3)cc12 [Example 53, 4-{1-[N-methyl-5-(5-fluoro-4-methyl-1H-indole-2-carbonyl)-4H,5H,6H,7H-pyrazolo[1,5-a]pyrazine-3-amido]cyclopropyl}benzoic acid] | < 5 | < 1 | – |
